Reference: patent US5521193A, “Benzimidazole compounds” (G. D. Searle & Co., priority 1995, dated 1996)
pEC50, pKi: −log10 of the molar value.

Legend:
5-HT3 receptor = molecular target: T1, 5-HT3 receptor (Rattus norvegicus, UniProt P35563); experiment: Serotonin (5-HT3) radioligand binding, [3H]-GR65630, rat brain cortex membranes; conditions: for pKi: Ki, [3H]-GR65630 0.2 nM, 60 min, 22° C.
T1 construct: Brain cortices were obtained from male rats and a membrane fraction prepared by standard techniques; from tissue; host or cells: rat brain cortex membranes
T1 sequence (P35563 24-483): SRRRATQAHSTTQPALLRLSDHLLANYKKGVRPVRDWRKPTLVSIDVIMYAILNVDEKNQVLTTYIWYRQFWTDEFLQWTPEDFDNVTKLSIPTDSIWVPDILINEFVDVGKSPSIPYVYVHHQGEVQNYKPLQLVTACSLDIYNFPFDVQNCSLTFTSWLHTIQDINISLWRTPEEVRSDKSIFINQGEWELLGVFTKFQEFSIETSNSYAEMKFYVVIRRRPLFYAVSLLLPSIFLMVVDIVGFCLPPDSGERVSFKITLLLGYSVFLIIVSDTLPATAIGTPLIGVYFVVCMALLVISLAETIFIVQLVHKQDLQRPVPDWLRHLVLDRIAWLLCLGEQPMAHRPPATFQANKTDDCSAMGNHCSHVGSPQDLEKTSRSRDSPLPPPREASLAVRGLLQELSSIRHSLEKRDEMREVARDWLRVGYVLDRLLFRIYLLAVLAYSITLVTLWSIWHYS
Method: GR65630 binds to the 5-HT3 receptor. Brain cortices were obtained from male rats and a membrane fraction prepared by standard techniques. 0.04 mg of membrane prep was incubated with 0.2 nM […] for 60 minutes at 22° C. […] Membranes were filtered and washed times and the filters were counted to determine [3H]-GR65630 specifically bound. Kilpatrick G. J., Jones B. J. and Tyers M. B. Identification and distribution of 5-HT3 receptors in rat brain using radioligand binding assay. Nature, 330 : 746-748, 1987.

5-HT3 = experiment: Bezold-Jarisch Reflex (inhibition of 5-HT-induced bradycardia in anesthetized mice); assay type: in vivo; conditions: i.p., 30 min before 5-HT 0.25 mg/kg i.v.; >50 percent reduction in bradycardic response vs vehicle considered significant; pentobarbital anesthetized mice
Method: (§1) 5-HT4 agonist activity was determined in the in vitro rat tunice muscularis mucosae (TMM) assay. (Baxter et el., Naunyn Schmied Arch. Pharmacol, 1991, 343,439). The 5-HT4 agonist or antagonist activity and/or 5-HT3 antagonist activity of the compounds of the invention herein, can be determined by the assays as described herein, without undue experimention.
The compound to be evaluated was administered i.p. (mg/kg) to a group of 3 mice. […] A greater than 50 percent (>50) reduction in the bradycardic response relative to vehicle-treated control mice was considered significant.
This method has been described by Saxena, P. R. and Lawang, A., Arch. Int. Pharmacodyn., 277:235-252, 1985.
The assay results for the compounds of the present invention and their Minimum Effective Dose (MED) and the reference compounds and their MEDs are recorded in Table I.

5-HT4 receptor = molecular target: T2, 5-HT4 receptor (Rattus norvegicus, UniProt Q62758); experiment: biochemical; conditions: carbachol (3 μM)-contracted rat esophagus TMM; 37° C.; tissues from 5 rats; read-out: 5-HT4 Agonism (Rat TMM) In Vitro Assay: EC50 Values
T2 construct: One 2 cm segment of intrathoracic esophagus proximal to the diaphragm was removed from male rats; from tissue; host or cells: rat intrathoracic oesophagus, inner tunica muscularis mucosae
T2 sequence (Q62758 whole entry): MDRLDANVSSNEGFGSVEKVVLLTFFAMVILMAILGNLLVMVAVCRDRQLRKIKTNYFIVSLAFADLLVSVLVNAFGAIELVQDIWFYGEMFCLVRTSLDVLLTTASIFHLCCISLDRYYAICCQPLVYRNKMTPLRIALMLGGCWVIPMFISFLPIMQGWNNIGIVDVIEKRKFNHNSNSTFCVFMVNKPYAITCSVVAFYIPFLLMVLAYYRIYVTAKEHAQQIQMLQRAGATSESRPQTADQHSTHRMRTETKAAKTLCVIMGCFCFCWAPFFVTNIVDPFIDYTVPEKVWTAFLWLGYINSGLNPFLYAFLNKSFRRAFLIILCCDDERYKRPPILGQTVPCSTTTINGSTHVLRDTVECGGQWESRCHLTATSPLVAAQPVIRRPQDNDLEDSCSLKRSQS
Method: as §1
Agonist activity was determined utilizing relaxation of carbachol-contracted rat tunica muscularis mucosae. One 2 cm segment of intrathoracic esophagus proximal to the diaphragm was removed from male rats, weighing approximately 300 gm, and the outer muscle layers removed. The inner tunica muscularis mucosa was mounted under 0.2-0.3 g of tension in a tissue bath containing oxygenated Tyrode's solution at 37° C. […] Following a 30 min equilibrium period, tissues were isometrically contracted with carbachol (3 μM) to obtain a tonic contraction. A stable plateau was obtained within 20 min when test compound was added cumulatively to relax the muscle strip. EC50 values were obtained for each agonist in tissues from 5 rats.

Structure (SMILES)	pKi (5-HT3 receptor)	pEC50 (5-HT4 receptor)	further results
CCn1c(=O)n(C(=O)NC2C3CC4CC2CN(C4)C3)c2ccc(Cl)cc21 (centres unmarked) [Example 19, N-(1-azatricyclo[3.3.1.1^3,7]decan-4-yl)-5-chloro-3-ethyl-2,3-dihydro 2-oxo-1H-benzimidazole-1-carboxamide]	5.92	–	–
CN1C2CCCC1CC(NC(=O)c1nn(C)c3ccccc13)C2 (centres unmarked) [BRL-43694]	–	–	Minimum Effective Dose (MED) (5-HT3): 0.05 mg/kg
CCn1c(=O)n(C(=O)NC2C3CC4CC2CN(C4)C3)c2ccc(Cl)cc21 (centres unmarked) [Example 22, N-(1-azatricyclo[3.3.1.1^3,7]decan-4-yl)-5-chloro-3-ethyl-2,3-dihydro 2-oxo-1H-benzimidazole-1-carboxamide]	6.44	–	–
CCn1c(=O)n(C(=O)NC2C3CC4CC2CN(C4)C3)c2ccccc21 (centres unmarked) [Example 15, N-(1-azatricyclo[3.3.1.1^3,7]decan-4-yl)-3-ethyl-2,3-dihydro-2-oxo 1H-benzimidazole-1-carboxamide]	7.04	5.34	–
CCN(CC)CCNC(=O)c1cc(Cl)c(N)cc1OC [metoclopramide]	–	–	Minimum Effective Dose (MED) (5-HT3): 5 mg/kg
CCn1c(=O)n(C(=O)NC2C3CC4CC2CN(C4)C3)c2cc(Cl)ccc21 (centres unmarked) [Example 21, N-(1-azatricyclo[3.3.1.1^3,7]decan-4-yl)-6-chloro-3-ethyl-2,3-dihydro 2-oxo-1H-benzimidazole-1-carboxamide]	7.26	5.67	–
CC(C)n1c(=O)n(C(=O)NCC2C3CC4CC2N(C4)C3)c2ccccc21 (stereo not drawn) [Example 29, N-[(Hexahydro-2β,6β-methano-1H, 7aα-pyrrolizin-1β-yl)methyl]2,3-dihydro-3-(1-methylethyl)-2-oxo-1H-benzimidazole-1-carboxamide]	–	5.79	–
CC(C)n1c(=O)n(C(=O)NCCC23CCCN2CCC3)c2ccc(Cl)cc21 [Example 12, 5-chloro-N-[2-(hexahydro-7aH-pyrrolizin-7a-yl)ethyl]2,3-dihydro-3-(1-methylethyl)-2-oxo-1H-benzimidazole 1-carboxamide]	5.55	5.02	–
CC(C)n1c(=O)n(C(=O)NCCC23CCCN2CCC3)c2cc(Cl)c(N)cc21 [Example 12B, 6-Chloro-5-amino-N-[2-(hexahydro-7aH-pyrrolizin-7a-yl)ethyl]-2,3-dihydro-3-(1-methylethyl)-2-oxo-1H-benzimidazole-1-carboxamide]	–	6.43	–
CC(C)n1c(=O)n(C(=O)NC[C@H]2CCN3CCC[C@H]23)c2ccccc21 (relative stereo) [Example 23, cis-N-[(hexahydro-1H-pyrrolizin-1-yl)methyl]-2,3-dihydro-3-(1-methylethyl) 2-oxo-1H-benzimidazole-1-carboxamide]	–	–	Minimum Effective Dose (MED) (5-HT3): 1 mg/kg
CC(C)n1c(=O)n(C(=O)N[C@H]2C[C@@H]3CN(C)C[C@@H]3C2)c2ccccc21 [Example 14A]	–	6.06	–
CCn1c(=O)n(C(=O)NC2C3CC4CC2CN(C4)C3)c2cc(Cl)ccc21 (centres unmarked) [Example 18, N-(1-azatricyclo[3.3.1.1^3,7]decan-4-yl)-6-chloro-3-ethyl-2,3-dihydro 2-oxo-1H-benzimidazole-1-carboxamide]	5.92	–	–
Cc1nc[nH]c1CCC(=O)c1cn(C)c2ccccc12 [GR65630, reference compound]	–	–	Bmax (5-HT3 receptor; [3H]-GR65630, rat brain cortex membranes): 154 fmol/mg protein
CN1[C@@H]2C[C@@H](OC(=O)[C@H](CO)c3ccccc3)C[C@H]1[C@@H]1O[C@@H]12 [scopolamine]	–	–	Minimum Effective Dose (MED) (5-HT3): 2.5 mg/kg
CC(C)n1c(=O)n(C(=O)NCC2C3CC4CC2CN(C4)C3)c2cc(Cl)ccc21 (centres unmarked) [Example 22C, N-(1-azatricyclo[3.3.1.1^3,7]decan-4-ylmethyl)-6-chloro-2,3-dihydro-3-(1-methylethyl) 2-oxo-1H-benzimidazole-1-carboxamide]	–	6.14	–
CC(C)n1c(=O)n(C(=O)NCCC23CCCN2CCC3)c2cc(Cl)ccc21 [Example 12A, 6-Chloro-N-[2-(hexahydro-7aH-pyrrolizin-7a-yl)ethyl]2,3-dihydro-3-(1-methylethyl)-2-oxo-1H-benzimidazole 1-carboxamide]	–	5.87	–
CC(C)n1c(=O)n(C(=O)NCC2C3CC4CC2N(C4)C3)c2ccccc21 (stereo not drawn) [Example 30, N-[(Hexahydro-2β,6β-methano-1H, 7aα-pyrrolizin-1α-yl)methyl]2,3-dihydro-3-(1-methylethyl)-2-oxo-1H-benzimidazole-1-carboxamide]	–	6.66	–
CC(C)n1c(=O)n(C(=O)NC[C@H]2CN3CC[C@H]2C3)c2ccccc21 (relative stereo) [Example 36, N-[(exo-1-azabicyclo[2.2.1]heptan-3-yl)methyl-]-2,3-dihydro-3-(1-methylethyl) 2-oxo-1H-benzimidazole-1-carboxamide]	–	6.52	–
CC(C)n1c(=O)n(C(=O)NCC2C3CC4CC2CN(C4)C3)c2ccccc21 (centres unmarked) [Example 19B, N-(1-azatricyclo[3.3.1.1.^3,7]decan-4-ylmethyl)-2,3-dihydro-3-(1-methylethyl) 2-oxo-1H-benzimidazole-1-carboxamide]	–	6.03	–
CCn1c(=O)n(C(=O)NC2C3CC4CC2CN(C4)C3)c2ccccc21 (centres unmarked) [Example 20, N-(1-azatricyclo[3.3.1.1^3,7]decan-4-yl)-3-ethyl-2,3-dihydro-2-oxo-1H-benzimidazole 1-carboxamide]	7.72	5.00	–
O=c1[nH]c2ccccc2n1CCCN1CCC(n2c(=O)[nH]c3cc(Cl)ccc32)CC1 [domperidone]	–	–	Minimum Effective Dose (MED) (5-HT3): > 10 mg/kg
CC(C)n1c(=O)n(C(=O)NC2C3CC4CC2CN(C4)C3)c2cc(Cl)ccc21 (centres unmarked) [Example 16, N-(1-azatricyclo[3.3.1.1^3,7]decan-4-yl)-6-chloro-2,3-dihydro-3-(1-methylethyl) 2-oxo-1H-benzimidazole-1-carboxamide]	5.92	5.00	–
CC(C)n1c(=O)n(C(=O)NCC23CCCN2CCC3)c2ccccc21 [Example 14, N-[(hexahydro-7aH-pyrrolizin-7a-yl)methyl]-2,3-dihydro-3-(1-methylethyl) 2-oxo-1H-benzimidazole-1-carboxamide]	7.44	5.42	–
CC(C)n1c(=O)n(C(=O)N[C@@H]2[C@@H]3C[C@H]4CN(C3)C[C@H]42)c2ccccc21 (relative stereo) [Example 24, N-(hexahydro-1H-2,5β-methano-3aα,6aα-cyclopenta [c]pyrrol-4α-yl)-2,3-dihydro-3-(1-methylethyl)-2-oxo 1H-benzimidazole-1-carboxamide]	8.70	5.82	–
CC(C)n1c(=O)n(C(=O)NCC23CC4CN(CC4C2)C3)c2ccccc21 [Example 33, N-[(Hexahydro-2,5β-methano-1H-3aα,6aα-cyclopenta-[c]pyrrol-5-yl)methyl]-2,3-dihydro 3-(1-methylethyl)-2-oxo-1H-benzimidazole-1-carboxamide]	–	6.47	–
CC(C)n1c(=O)n(C(=O)NCC2C3CC4CC2CN4C3)c2ccccc21 (centres unmarked) [Example 32, N-(Hexahydro-2,6-methano-1H-pyrrolizin-8-ylmethyl]-2,3-dihydro-3(1-methylethyl)-2-oxo-1H-benzimidazole-1-carboxamide]	–	5.88	–
CC(C)n1c(=O)n(C(=O)NCC23CC4CN(CC4C2)C3)c2cc(Cl)ccc21 [Example 34, N-[(Hexahydro-2,5β-methano-1H-3aα,6aα-cyclopenta[c]-pyrrol-5-yl)methyl]-6-chloro-2,3-dihydro-3-(1-methylethyl)-2-oxo-1-benzimidazole-1-carboxamide]	–	6.61	–
CC(C)n1c(=O)n(C(=O)NC[C@@H]2CN3CC[C@H]2C3)c2ccccc21 (relative stereo) [Example 35, N-[(endo-1-azabicyclo[2.2.1]heptan-3-yl)methyl-]-2,3-dihydro-3-(1-methylethyl) -2-oxo-1H-benzimidazole-1-carboxamide]	–	6.53	–
